Read-outs that look alike come from different tables or passages of the source.
Assays:
[1] = tested on: PAF-induced aggregation of rabbit blood platelets; assay: Anti-PAF activity in vitro, inhibition of PAF-induced platelet aggregation; format: cell-based, rabbit (New Zealand hybrids); details: test substance concentration of 10^-5 mole/l, pH 7.4
From the text: 4. Determination of Anti-PAF Activity In Vitro
PAF (=Platelet Activating Factor) is a phospholipid mediator which has many effects. Activation of platelet aggregation induces protracted broncho-contraction and hyper-reactivity of the air paths.
In this test the effect of the test substances on platelet aggregation induced by adding PAF to a suspension of platelets obtained from rabbit blood is investigated using the method described by Mikashima et al. (Jap. J. Pharmacol. 44 (1987) 387-391).
A suspension of platelets obtained from rabbit blood containing 4×10^9 platelets/ml in a modified Tyrode buffer solution (=Tyrode solution with 1.3 mM/1 CaCl2 and 2.5 g/l gelatine added) adjusted to pH 7.4 was used. Tyrode solution is an aqueous solution containing 136.9 mmoles NaCl, 2.68 mmoles KCl, 2.31 mmoles CaCl2, 1.0 mmole MgCl2, 11.9 mmoles NaHCO3, 1.45 mmoles NaH2 PO4 and 5.55 mmoles glucose per liter. The platelets were obtained from 10 ml blood samples from each of three rabbits (New Zealand hybrids, body weight 3-4 kg). For this the blood samples were treated with ethylenediamine tetraacetic acid and washed according to the method of Artley et al. (Brit. J. Hematol. 19 (1970), 7-17). […]
To carry out the test 50 μl of the platelet suspension and 10 μl of a 40×10^-5 molar solution of the compound being investigated were added with stirring (1,000 rpm) to 330 μl of the modified Tyrode buffer solution in an aggregation tube provided with a small magnetic stirrer. […] The aggregation occurring in the aggregation tubes was measured over 4-5 minutes with the aid of a computerized aggregometer.
The aggregation which occurred in test tubes containing only platelet suspension was evaluated as 0%, whereas the aggregation which occurred in test tubes containing platelet suspension and PAF preparation was evaluated as 100%. The aggregation which still occurred during the inhibition of the PAF induced platelet aggregation due to the addition of the test substances was measured, and the resulting aggregation inhibition was calculated therefrom in %.

[2] = tested on: cyclooxygenase (6-keto-PGF1α release); assay: Cyclooxygenase inhibition: 6-keto-PGF1α release from zymosan-stimulated mouse peritoneal macrophage cells; format: cell-based; details: Peritoneal macrophage cell, read-out: In vitro % inhibition upon release of 6-keto-PGF1α
From the text: (§1) 5. In vitro Determination of Cyclooxygenase Inhibition and 5-Lipoxygenase Inhibition
(§2) After a cell is activated, arachidonic acid contained in cell membranes is metabolized in two ways. Leucotrienes, inter alia leucotriene C4, are formed due to the action of the enzyme 5-lipoxyqenase (=5-LO), and prostanoids are formed due to the action of the enzyme cyclooxygenase (=CO). In in vitro systems these metabolites are secreted from the cell.
(§3) To evaluate the cyclooxygenase-inhibiting and 5-lipoxygenase-inhibiting properties of the test substances, their inhibitory activity on the biosynthesis of the arachidonic acid derivatives leucotriene C4 (=LTC4) and 6-keto-prostaglandin F1α (=6-keto-PGF1 α) was determined in vitro on mouse peritoneal macrophage cells. For this purpose the LTC4 and 6-keto-PGF1 α contents of a mouse peritoneal macrophage cell culture medium were determined by zymosan stimulation as described by Scott et al. (J. Exp. Med. 152 (1980), 324-335) and by Fradin et al., (Prostaglandins, 33 (1987), 579-589).
(§4) A cell suspension containing peritoneal cells from male mice 8-10 weeks old was obtained in a known manner. A solution marketed under the designation RPMI 1640 (Manufactured by Gibco) was used as the cell culture medium, to which heparin (10 international units/ml) and antibiotics were added according to the procedure of Bonney et al. (Biochem. J. 176 (1978) 422-433). The cell suspension was adjusted to a cell concentration of 10^6 cells per ml and distributed uniformly on titer dishes containing 24 1-ml titer cells (wells). These were kept for two hours in a humidified incubator filled with air enriched with 7% CO2. Cells not adhering to the titer well walls were then removed by washing. The remaining macrophage cells adhering to the walls were incubated for about 12 hours in a suspension medium to which 0.1% of bovine serum albumin (BSA=Bovine Serum Albumin) was added. The suspension medium was then replaced by a Hanks salt solution (=Hanks Balanced Salt Solution=HBSS) with 10 mmoles of Hepes (=hydroxyethylpiperazinoethanesulfonic acid) to which a 0.1% strength solution of the test substances in aqueous, 1% strength dimethylformamide or only the solvent had been added. After 15 minutes the arachidonic acid metabolism was stimulated by adding […] of zymosan (=glycoprotein mixture isolated from cell walls of beer yeast, Saccharomyces cerevisiae, Manufactured by Sigma Chemical Co., Munich) per titre cell. After 2 hours samples of the respective supernatant liquid in each cell were examined for their 6-keto-PGF1α and LTC4 contents by an enzyme immunoassay (=EIA). This EIA is carried out following the method of Pradelles et al. (Analytical Chem. 57 (1985), 1170-1173). The determination of LTC4 and the determination of 6-keto-PGF1α were each carried out on suitable dilutions of the samples (1:50 to 1:250 for the LTC4 determination and 1:250 to 1:1,250 for the 6-keto-PGF1α determination) in comparison with a comparative scale. To determine the inhibiting effect of a 10^-5 molar concentration of the compounds, the amounts of reference eicosanoid were determined, and the inhibiting effect was calculated therefrom in % inhibition compared to the measurements of the zymosan controls.

[3] = tested on: 5-lipoxygenase (LTC4 release); assay: 5-Lipoxygenase inhibition: LTC4 release from zymosan-stimulated mouse peritoneal macrophage cells; format: cell-based; details: Peritoneal macrophage cell, read-out: In vitro % inhibition upon release of LTC4
From the text: as §1, §2, §3, §4

[4] = tested on: mice; assay: Determination of minimum toxic dose; format: in vivo; details: mouse, per os; lowest dose producing death or severe toxic symptoms, maximum dose 300 mg/kg, 24 hours
Experimental: 2. Determination of Minimum Toxic Dose
Maximum doses of 300 mg/kg of the test substance were administered orally to male mice weighing 20-25 g. The animals were observed carefully for 3 hours for toxicity symptoms. In addition, all symptoms and deaths were recorded over a period of 24 hours after administration. Associated symptoms were also observed and recorded. If death or severe toxic symptoms were observed, additional mice were administered increasingly lower doses. The lowest dose which produced death or severe toxic symptoms is given in the following Table B as the minimum toxic dose.

[5] = zymosan-stimulated mouse peritoneal macrophage cells, 10^-5 mole/l

Cc1cc2c(cc1C)SC(CCCCN1CC=C(c3ccccc3)CC1)C(=O)N2 (stereo not shown) [Example 19]
% inhibition of the PAF-induced aggregation of rabbit blood platelets [1]: 72%
inhibition at 10 µM [2, 5]: 16%
inhibition at 10 µM [3, 5]: 57%

N#CC1(c2ccccc2)CCN(CCCC2Oc3ccc(Cl)cc3NC2=O)CC1 (stereo not shown) [Example 14]
% inhibition of the PAF-induced aggregation of rabbit blood platelets [1]: 57%
inhibition at 10 µM ([2]; Mus musculus): 25%
inhibition at 10 µM ([3]; Mus musculus): 10%

O=C1Nc2ccccc2SC1CCCN1CCC(Cc2ccccc2)CC1 (stereo not shown) [Example 21]
Minimum toxic dose [4]: 100 mg/kg
% inhibition of the PAF-induced aggregation of rabbit blood platelets [1]: 33%
inhibition at 10 µM [2, 5]: 11%
inhibition at 10 µM [3, 5]: 24%
